Data taken from ChEMBL document CHEMBL1201862, “PubChem BioAssay data set” (2004).
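Protocol summary: plate cells (96-well), add compound at 5 concentrations, incubate 48 h, interpolate endpoints linearly. The concentration for 50% growth inhibition is given as GI50.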 Active and inactive are the calls of the source. Cut-off read from the data, not from the text of the source: active = GI50 up to about 1.1 µM and inactive = higher.

What was measured:
Test in all cases: growth of human tumour cells (NCI), 48 h
[1] = test system: HCT-116
[2] = test system: HCC 2998
[3] = test system: SF-539
[4] = test system: SK-MEL-28
[5] = test system: COLO 205
[6] = test system: NCI-H226
[7] = test system: NCI-H460
[8] = test system: CCRF-CEM
[9] = test system: RXF 393
[10] = test system: SK-MEL-5
[11] = test system: Malme-3M
[12] = test system: SNB-19
[13] = test system: OVCAR-4
[14] = test system: HOP-92
[15] = test system: 786-0
[16] = test system: BT-549
[17] = test system: UACC-62
[18] = test system: SW-620
[19] = test system: MDA-MB-231
[20] = test system: UO-31
[21] = test system: OVCAR-8
[22] = test system: MCF7
[23] = test system: MDA-MB-435
[24] = test system: SN12C
[25] = test system: SK-MEL-2
[26] = test system: U-251
[27] = test system: A549
[28] = test system: HT-29
[29] = test system: OVCAR-5
[30] = test system: K562
[31] = test system: EKVX
[32] = test system: IGROV-1
[33] = test system: PC-3
[34] = test system: SR
[35] = test system: SNB-75
[36] = test system: ACHN
[37] = test system: NCI/ADR-RES
[38] = test system: OVCAR-3
[39] = test system: SK-OV-3
[40] = test system: HL-60
[41] = test system: NCI-H522
[42] = test system: SF-268
[43] = test system: UACC-257
[44] = test system: DU-145
[45] = test system: HOP-62
[46] = test system: KM12
[47] = test system: HCT-15
[48] = test system: T47D
[49] = test system: M14
[50] = test system: TK-10
[51] = test system: RPMI-8226
[52] = test system: MOLT-4
[53] = test system: SF-295
[54] = test system: MDA-N
[55] = test system: Hs-578T
[56] = test system: CAKI-1
[57] = test system: LOX IMVI
[58] = test system: NCI-H23
[59] = test system: A498

O=C(O)c1cc2ccccc2c(/N=N/c2ccc(S(=O)(=O)Nc3ccccn3)cc2)c1O
GI50 [1]: > 100 µM (inactive)
GI50 [2]: > 100 µM (inactive)
GI50 [3]: > 100 µM (inactive)
GI50 [4]: > 100 µM (inactive)
GI50 [5]: > 100 µM (inactive)
GI50 [6]: > 100 µM (inactive)
GI50 [7]: > 100 µM (inactive)
GI50 [8]: > 100 µM (inactive)
GI50 [9]: > 100 µM (inactive)
GI50 [10]: > 100 µM (inactive)
GI50 [11]: > 100 µM (inactive)
GI50 [12]: < 0.01 µM (active)
GI50 [13]: > 100 µM (inactive)
GI50 [14]: > 100 µM (inactive)
GI50 [15]: > 100 µM (inactive)
GI50 [16]: > 100 µM (inactive)
GI50 [17]: > 100 µM (inactive)
GI50 [18]: > 100 µM (inactive)
GI50 [19]: > 100 µM (inactive)
GI50 [20]: > 100 µM (inactive)
GI50 [21]: > 100 µM (inactive)
GI50 [22]: > 100 µM (inactive)
GI50 [23]: > 100 µM (inactive)
GI50 [24]: > 100 µM (inactive)
GI50 [25]: > 100 µM (inactive)
GI50 [26]: > 100 µM (inactive)
GI50 [27]: > 100 µM (inactive)
GI50 [28]: > 100 µM (inactive)
GI50 [29]: > 100 µM (inactive)
GI50 [30]: > 100 µM (inactive)
GI50 [31]: > 100 µM (inactive)
GI50 [32]: > 100 µM (inactive)
GI50 [33]: > 100 µM (inactive)
GI50 [34]: > 100 µM (inactive)
GI50 [35]: > 100 µM (inactive)
GI50 [36]: > 100 µM (inactive)
GI50 [37]: > 100 µM (inactive)
GI50 [38]: > 100 µM (inactive)
GI50 [39]: > 100 µM (inactive)
GI50 [40]: > 100 µM (inactive)
GI50 [41]: > 100 µM (inactive)
GI50 [42]: > 100 µM (inactive)
GI50 [43]: > 100 µM (inactive)
GI50 [44]: > 100 µM (inactive)
GI50 [45]: > 100 µM (inactive)
GI50 [46]: > 100 µM (inactive)
GI50 [47]: > 100 µM
GI50 [48]: > 100 µM (inactive)
GI50 [49]: > 100 µM (inactive)
GI50 [50]: > 100 µM (inactive)
GI50 [51]: > 100 µM (inactive)
GI50 [52]: > 100 µM (inactive)
GI50 [53]: > 100 µM (inactive)
GI50 [54]: > 100 µM (inactive)
GI50 [55]: > 100 µM (inactive)
GI50 [56]: > 100 µM (inactive)

O=C1C=CC2(O[C@H](c3ccccc3)[C@@H](c3ccccc3)O2)C(SC(=O)c2ccccc2)C1 (stereo not given in full)
GI50 [1]: 0.355 µM (active)
GI50 [3]: 1.75 µM (inactive)
GI50 [4]: 1.79 µM (inactive)
GI50 [5]: 1.4 µM (inactive)
GI50 [6]: 1.74 µM (inactive)
GI50 [7]: 3.02 µM (inactive)
GI50 [9]: 0.182 µM (active)
GI50 [10]: 1.47 µM (inactive)
GI50 [11]: 2.27 µM (inactive)
GI50 [12]: 2.19 µM (inactive)
GI50 [13]: 1.63 µM (inactive)
GI50 [15]: 0.385 µM (active)
GI50 [16]: 0.433 µM (active)
GI50 [17]: 2.34 µM (inactive)
GI50 [18]: 0.288 µM (active)
GI50 [19]: 3.9 µM (inactive)
GI50 [20]: 1.37 µM (inactive)
GI50 [21]: 0.201 µM (active)
GI50 [22]: 0.371 µM (active)
GI50 [23]: 2.02 µM (inactive)
GI50 [24]: 2.33 µM (inactive)
GI50 [25]: 1.72 µM (inactive)
GI50 [26]: 1.56 µM (inactive)
GI50 [27]: 4.49 µM (inactive)
GI50 [28]: 2.03 µM (inactive)
GI50 [29]: 1.69 µM (inactive)
GI50 [30]: 1.32 µM (inactive)
GI50 [57]: 1.12 µM (inactive)
GI50 [31]: 0.182 µM (active)
GI50 [58]: 1.63 µM (inactive)
GI50 [32]: 1.52 µM (inactive)
GI50 [33]: 2.13 µM (inactive)
GI50 [34]: 0.256 µM (active)
GI50 [35]: 2.09 µM (inactive)
GI50 [36]: 1.37 µM (inactive)
GI50 [37]: 1.57 µM (inactive)
GI50 [38]: 1.79 µM (inactive)
GI50 [39]: 2.32 µM (inactive)
GI50 [40]: 1.84 µM (inactive)
GI50 [42]: 1.3 µM (inactive)
GI50 [43]: 1.79 µM (inactive)
GI50 [44]: 3.34 µM (inactive)
GI50 [45]: 1.38 µM (inactive)
GI50 [46]: 2.27 µM (inactive)
GI50 [59]: 7.71 µM (inactive)
GI50 [47]: 0.673 µM
GI50 [48]: 2.06 µM (inactive)
GI50 [49]: 1.33 µM (inactive)
GI50 [50]: 1.68 µM (inactive)
GI50 [51]: 0.979 µM (active)
GI50 [52]: 0.35 µM (active)
GI50 [53]: 2.91 µM (inactive)
GI50 [54]: 1.43 µM (inactive)
GI50 [55]: 1.62 µM (inactive)
GI50 [56]: 1.67 µM (inactive)

Cc1cc2c(cc1C)C(=O)C1(C2)Cc2c(ccc(C)c2C)C1=O (stereo not given)
GI50 [1]: > 100 µM (inactive)
GI50 [2]: > 100 µM (inactive)
GI50 [3]: 36.6 µM (inactive)
GI50 [4]: > 100 µM (inactive)
GI50 [5]: > 100 µM (inactive)
GI50 [6]: > 100 µM (inactive)
GI50 [7]: > 100 µM (inactive)
GI50 [8]: > 100 µM (inactive)
GI50 [9]: 53.8 µM (inactive)
GI50 [10]: > 100 µM (inactive)
GI50 [11]: 98.6 µM (inactive)
GI50 [12]: > 100 µM (inactive)
GI50 [13]: 75.5 µM (inactive)
GI50 [14]: 79.4 µM (inactive)
GI50 [15]: 89.1 µM (inactive)
GI50 [16]: > 100 µM (inactive)
GI50 [17]: > 100 µM (inactive)
GI50 [18]: > 100 µM (inactive)
GI50 [19]: > 100 µM (inactive)
GI50 [20]: > 100 µM (inactive)
GI50 [21]: 72.8 µM (inactive)
GI50 [22]: > 100 µM (inactive)
GI50 [23]: > 100 µM (inactive)
GI50 [24]: > 100 µM (inactive)
GI50 [25]: > 100 µM (inactive)
GI50 [26]: > 100 µM (inactive)
GI50 [27]: 73.6 µM (inactive)
GI50 [29]: > 100 µM (inactive)
GI50 [30]: > 100 µM (inactive)
GI50 [57]: > 100 µM (inactive)
GI50 [31]: > 100 µM (inactive)
GI50 [32]: > 100 µM (inactive)
GI50 [33]: > 100 µM (inactive)
GI50 [34]: > 100 µM (inactive)
GI50 [35]: 64.6 µM (inactive)
GI50 [36]: > 100 µM (inactive)
GI50 [37]: > 100 µM (inactive)
GI50 [38]: > 100 µM (inactive)
GI50 [40]: > 100 µM (inactive)
GI50 [41]: > 100 µM (inactive)
GI50 [42]: 90.8 µM (inactive)
GI50 [43]: > 100 µM (inactive)
GI50 [44]: > 100 µM (inactive)
GI50 [46]: > 100 µM (inactive)
GI50 [47]: > 100 µM
GI50 [48]: > 100 µM (inactive)
GI50 [49]: > 100 µM (inactive)
GI50 [50]: > 100 µM (inactive)
GI50 [51]: > 100 µM (inactive)
GI50 [52]: > 100 µM (inactive)
GI50 [53]: > 100 µM (inactive)
GI50 [54]: > 100 µM (inactive)
GI50 [55]: 42.5 µM (inactive)
GI50 [56]: > 100 µM (inactive)
